Take `OC[C@H]1CCCC[C@H]1Nc1nccc(-n2nnc3ccccc32)n1` [Example 9, (1S,2R)-[2-(4-benzotriazol-1-yl-pyrimidin-2-ylamino)-cyclohexyl]-methanol]: the melting point (commonly the temperature, or range, at which the solid turns liquid) is 206.1 to 207.8 °C.
For `O=C1CCC(=O)N1[C@H]1CC[C@H](Nc2nccc(-n3nnc4ccccc43)n2)CC1` [Example 15, 1-[trans-4-(4-benzotriazol-1-yl-pyrimidin-2-ylamino)-cyclohexyl]-pyrrolidine-2,5-dione] the value was 205 to 210 °C.
On to `CN(c1nccc(-n2nnc3ccccc32)n1)[C@H]1CC[C@H](N(C)S(C)(=O)=O)CC1` [Example 14, N-{trans-4-[(4-benzotriazol-1-yl-pyrimidin-2-yl)-methyl-amino]-cyclohexyl}-N-methyl-methanesulfonamide], for which the melting point lay within 203.5 to 204 °C.
For `O=C1CCC(Nc2nccc(-n3nnc4ccccc43)n2)CC1` [Example 16, 4-(4-benzotriazol-1-yl-pyrimidin-2-ylamino)-cyclohexanone] the value was 204.9 to 206.5 °C; for `CC1(O)CCC(Nc2nccc(-n3nnc4ccccc43)n2)CC1` (stereo not drawn) [Example 17, 4-(4-benzotriazol-1-yl-pyrimidin-2-ylamino)-1-methyl-cyclohexanol], 202.1 to 205.6 °C.
With `COCC(=O)N[C@H]1CC[C@H](Nc2nccc(-n3nnc4ccccc43)n2)CC1` [Example 24, trans-N-[4-(4-Benzotriazol-1-yl-pyrimidin-2-ylamino)-cyclohexyl]-2-methoxy-acetamide], the melting point is 233.5 to 235.4 °C.

The values above are taken from patent US8962622B2, “Benzotriazole kinase modulators” (Roche Palo Alto LLC, priority 2006, dated 2015).
